From ChEMBL document CHEMBL3351660, “Isolation and total syntheses of cytotoxic cryptolactones A1, A2, B1, and B2: α,β-unsaturated δ-lactones from a Cryptomyzus sp. aphid” (J Nat Prod, 2014) come the findings set out here.

A short description of the assay: Cytotoxicity against human HL60 cells after 24 hrs by MTT assay. It counts as functional, cell-based. As to conditions: HL-60, 24 h.

Regarding `CCCCCCCCCC(=O)C[C@@H](O)C[C@@H]1CC=CC(=O)O1`, the IC50 (commonly the concentration that gives 50% inhibition) is 5.3 µM. `CCCCCCCCCCCC(=O)C[C@H](O)C[C@@H]1CC=CC(=O)O1`: inhibition was half-maximal at 0.97 µM (IC50). To `CCCCCCCCCC(=O)C[C@H](O)C[C@@H]1CC=CC(=O)O1` belongs 1.2 µM; to `CCCCCCCCCCCC(=O)C[C@@H](O)C[C@@H]1CC=CC(=O)O1`, 4.9 µM; to `COc1cccc2c1C(=O)c1c(O)c3c(c(O)c1C2=O)C[C@@](O)(C(=O)CO)C[C@@H]3O[C@H]1C[C@H](N)[C@H](O)[C@H](C)O1` [DOXORUBICIN], 0.14 µM.
